Assay results: patent US8846710B2, “Method of preferentially inducing the biosynthesis of interferon” (3M Innovative Properties Company, priority 2005, dated 2014)

Assays:
interferon (α) (IFN-α) = test: Cytokine induction in human cells: IFN-α secreted by PBMC into culture media (ELISA); assay type: cell-based; set-up: key to Maximal Response (pg/mL) IFN: If any negative values result from background subtraction, the reading is reported as “*”, and is noted as not reliably detectable; conditions: for minimal effective concentration / Maximal Response IFN / Minimum Effective Concentration IFN: human PBMC; for minimal effective concentration: lowest tested concentration inducing IFN-α over usually 20 pg/mL, median where more than one experiment, read-out: Minimum Effective Concentration (μM) IFN; for Maximal Response (pg/mL) IFN: maximal response in dose response curve, median; for Maximal Response IFN / Minimum Effective Concentration IFN: median where tested in more than one experiment
Outline: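 IFN-α secreted by density-gradient-isolated PBMC (final 2×10^6 cells/mL) was quantified by ELISA after 18–24 h compound exposure at 37 °C, typically 30-0.014 μM in 3-fold steps with ≤1% DMSO. Readings corrected for background and reference-compound variability; lowest concentration above usually 20 pg/mL reported, plus maximal response (pg/mL).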

[1] = system: tumor necrosis factor (α) (TNF-α); test: Cytokine induction in human cells: TNF-α secreted by PBMC into culture media (ORIGEN M-Series immunoassay); assay type: cell-based; set-up: key to Maximal Response (pg/mL) TNF / Maximal Response TNF: If any negative values result from background subtraction, the reading is reported as “*”, and is noted as not reliably detectable; conditions: for minimal effective concentration / Maximal Response TNF / Minimum Effective Concentration TNF: human PBMC; for minimal effective concentration: lowest tested concentration inducing TNF-α over usually 40 pg/mL, median where more than one experiment, read-out: Minimum Effective Concentration (μM) TNF; for Maximal Response (pg/mL) TNF: maximal response in dose response curve; for Maximal Response (pg/mL) TNF / Maximal Response TNF: median; for Minimum Effective Concentration TNF: median where tested in more than one experiment
Outline: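 Secreted TNF-α (pg/mL) was quantified by ORIGEN M-Series immunoassay after 18 to 24 hours culture at 37° C of human PBMC (2×10^6 cells/mL final) with test compound (usually 30-0.014 μM, 3-fold series, DMSO ≤1%). Values were corrected for DMSO or experimental background and a reference-compound ratio, giving a minimum effective concentration.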

[2] = Table 10, * = below experimental background level
[3] = Table 11, * = TNF below experimental background of 40 pg/mL
[4] = Table 7, background-subtracted, reference-adjusted

## COCc1nc2c(N)nc3cc(-c4cncc(CO)c4)ccc3c2n1CC(C)(C)O [Analog 13]
Interferon (α) (IFN-α); Table 10
  minimal effective concentration: 0.12 µM
Interferon (α) (IFN-α); [2]
  Maximal Response (pg/mL) IFN: 1771 pg/mL
[1]; Table 10
  minimal effective concentration: 3.33 µM
[1]; [2]
  Maximal Response (pg/mL) TNF: 8000 pg/mL

## Cc1nc2c(N)nc3cccnc3c2n1CC(C)(C)O [Analog 126, 1-(4-amino-2-methyl-1H-imidazo[4,5-c][1,5]naphthyridin-1-yl)-2-methylpropan-2-ol]
Interferon (α) (IFN-α); Table 12
  Maximal Response IFN: 1952 pg/mL
[1]; Table 12, * = below the experimental background of 40 pg/mL
  Maximal Response TNF: 6519 pg/mL

## CCOCc1nc2c(N)nc3cc(-c4cccc(O)c4)ccc3c2n1CC(C)(C)O [Analog 43]
Interferon (α) (IFN-α); Table 10
  minimal effective concentration: 0.04 µM
Interferon (α) (IFN-α); [2]
  Maximal Response (pg/mL) IFN: 740 pg/mL
[1]; Table 10
  minimal effective concentration: 0.04 µM
[1]; [2]
  Maximal Response (pg/mL) TNF: 3955 pg/mL

## CC(C)(CNS(C)(=O)=O)Cn1c(CCO)nc2c(N)nc3ccccc3c21 [Example 131]
Interferon (α) (IFN-α); Table 11
  Maximal Response IFN: 8361 pg/mL
  Minimum Effective Concentration IFN: 0.37 µM
[1]; Table 11
  Minimum Effective Concentration TNF: >30 µM
[1]; [3]
  Maximal Response TNF: *

## Nc1nc2ccccc2c2c1nc(CCO)n2CCCCNC(=O)c1nccc2ccccc12 [Example 111]
Interferon (α) (IFN-α); Table 11
  Maximal Response IFN: 7753 pg/mL
  Minimum Effective Concentration IFN: 0.12 µM
[1]; Table 11
  Minimum Effective Concentration TNF: 1.11 µM
[1]; [3]
  Maximal Response TNF: 983 pg/mL

## CCOCc1nc2c(N)nc3ccccc3c2n1CCNS(C)(=O)=O [Analog 71]
Interferon (α) (IFN-α); Table 11
  Maximal Response IFN: 1465 pg/mL
  Minimum Effective Concentration IFN: 0.12 µM
[1]; Table 11
  Minimum Effective Concentration TNF: 3.33 µM
[1]; [3]
  Maximal Response TNF: 4918 pg/mL

## CC(C)(Cn1c(CO)nc2c(N)nc3ccccc3c21)NC(=O)C1CCCCC1 [Example 5, N-[2-(4-Amino-2-hydroxymethyl-1H-imidazo[4,5-c]quinolin-1-yl)-1,1-dimethylethyl]cyclohexanecarboxamide]
Interferon (α) (IFN-α); Table 11
  Maximal Response IFN: 17274 pg/mL
[1]; [3]
  Maximal Response TNF: 1130 pg/mL

## CCCc1nc2c(N)nc3ccccc3c2n1CC(C)(C)CNS(C)(=O)=O [Analog 65]
Interferon (α) (IFN-α); Table 11
  Maximal Response IFN: 1711 pg/mL
  Minimum Effective Concentration IFN: 0.12 µM
[1]; Table 11
  Minimum Effective Concentration TNF: 10 µM
[1]; [3]
  Maximal Response TNF: 1929 pg/mL

## CC(C)(Cn1c(CO)nc2c(N)nc3ccccc3c21)NS(C)(=O)=O [Example 7, N-[2-(4-Amino-2-hydroxymethyl-1H-imidazo[4,5-c]quinolin-1-yl)-1,1-dimethylethyl]methanesulfonamide]
Interferon (α) (IFN-α); [4]
  Maximal Response (pg/mL) IFN: 2250 pg/mL
Interferon (α) (IFN-α); Table 11
  Maximal Response IFN: 1670 pg/mL
[1]; [4]
  Maximal Response (pg/mL) TNF: 121 pg/mL
[1]; [3]
  Maximal Response TNF: 154 pg/mL

## COCCc1nc2c(N)nc3ccccc3c2n1CC(C)(C)CN [Analog 100]
Interferon (α) (IFN-α); Table 11
  Maximal Response IFN: 571 pg/mL
  Minimum Effective Concentration IFN: 0.014 µM
[1]; Table 11
  Minimum Effective Concentration TNF: 0.04 µM
[1]; [3]
  Maximal Response TNF: 17626 pg/mL

## CCc1nc2c(N)nc3cc(-c4cccnc4)ccc3c2n1CC1CCN(C(=O)C(C)C)CC1 [Analog 19]
Interferon (α) (IFN-α); Table 10
  minimal effective concentration: 0.12 µM
Interferon (α) (IFN-α); [2]
  Maximal Response (pg/mL) IFN: 1686 pg/mL
[1]; Table 10
  minimal effective concentration: 1.11 µM
[1]; [2]
  Maximal Response (pg/mL) TNF: 619 pg/mL

## CCCc1nc2c(N)nc3ccccc3c2n1CC(C)(C)NC(=O)NC(C)C [Analog 107]
Interferon (α) (IFN-α); Table 11
  Maximal Response IFN: 1428 pg/mL
  Minimum Effective Concentration IFN: 1.11 µM
[1]; Table 11
  Minimum Effective Concentration TNF: 3.33 µM
[1]; [3]
  Maximal Response TNF: 6363 pg/mL

## COCCc1nc2c(N)nc3ccccc3c2n1CCCNC(=O)c1ccccc1 [Analog 102]
Interferon (α) (IFN-α); Table 11
  Maximal Response IFN: 1504 pg/mL
  Minimum Effective Concentration IFN: 0.014 µM
[1]; Table 11
  Minimum Effective Concentration TNF: 1.11 µM
[1]; [3]
  Maximal Response TNF: 3080 pg/mL

## CCCc1nc2c(N)nc3ccccc3c2n1CCCCNS(C)(=O)=O [Analog 50]
Interferon (α) (IFN-α); Table 11
  Maximal Response IFN: 2184 pg/mL
  Minimum Effective Concentration IFN: 0.12 µM
[1]; Table 11
  Minimum Effective Concentration TNF: 1.11 µM
[1]; [3]
  Maximal Response TNF: 850 pg/mL

## Nc1nc2cc(-c3ccncc3)ccc2c2c1nc(CCO)n2CCCN1CCCC1=O [Example 161]
Interferon (α) (IFN-α); Table 10
  minimal effective concentration: >30 µM
Interferon (α) (IFN-α); [2]
  Maximal Response (pg/mL) IFN: *
[1]; Table 10
  minimal effective concentration: >30 µM
[1]; [2]
  Maximal Response (pg/mL) TNF: *

## Nc1nc2ccccc2c2c1nc(CCO)n2CCCCNC(=O)N1CCOCC1 [Example 115]
Interferon (α) (IFN-α); Table 11
  Maximal Response IFN: 8361 pg/mL
  Minimum Effective Concentration IFN: 1.11 µM
[1]; Table 11
  Minimum Effective Concentration TNF: >30 µM
[1]; [3]
  Maximal Response TNF: *

## CCOCc1nc2c(N)nc3ccccc3c2n1CC(C)(C)NC(=O)C1CCCCC1 [Analog 93]
Interferon (α) (IFN-α); Table 11
  Maximal Response IFN: 1052 pg/mL
  Minimum Effective Concentration IFN: 0.37 µM
[1]; Table 11
  Minimum Effective Concentration TNF: 0.37 µM
[1]; [3]
  Maximal Response TNF: 12173 pg/mL

## CS(=O)(=O)NCCCCCCCCn1c(CCO)nc2c(N)nc3ccccc3c21 [Example 119]
Interferon (α) (IFN-α); Table 11
  Maximal Response IFN: 8361 pg/mL
  Minimum Effective Concentration IFN: 0.04 µM
[1]; Table 11
  Minimum Effective Concentration TNF: 3.33 µM
[1]; [3]
  Maximal Response TNF: 693 pg/mL

## CCOCc1nc2c(N)nc3cc(-c4cccnc4)ccc3c2n1CC(C)C [Analog 26]
Interferon (α) (IFN-α); Table 10
  minimal effective concentration: 0.014 µM
Interferon (α) (IFN-α); [2]
  Maximal Response (pg/mL) IFN: 591 pg/mL
[1]; Table 10
  minimal effective concentration: 0.12 µM
[1]; [2]
  Maximal Response (pg/mL) TNF: 647 pg/mL

## CCOCc1nc2c(N)nc3cc(-c4ccccc4)ccc3c2n1CC(C)(C)O [Analog 24]
Interferon (α) (IFN-α); Table 10
  minimal effective concentration: 0.014 µM
Interferon (α) (IFN-α); [2]
  Maximal Response (pg/mL) IFN: 440 pg/mL
[1]; Table 10
  minimal effective concentration: 0.12 µM
[1]; [2]
  Maximal Response (pg/mL) TNF: 2238 pg/mL

## COCCc1nc2c(N)nc3ccccc3c2n1CCOCCN(C)C(=O)c1ccccc1 [Analog 120]
Interferon (α) (IFN-α); Table 11
  Maximal Response IFN: 1394 pg/mL
  Minimum Effective Concentration IFN: 0.04 µM
[1]; Table 11
  Minimum Effective Concentration TNF: 0.37 µM
[1]; [3]
  Maximal Response TNF: 3317 pg/mL

## COCCc1nc2c(N)nc3ccccc3c2n1CCCNS(C)(=O)=O [Analog 62]
Interferon (α) (IFN-α); Table 11
  Maximal Response IFN: 3995 pg/mL
  Minimum Effective Concentration IFN: 0.014 µM
[1]; Table 11
  Minimum Effective Concentration TNF: 1.11 µM
[1]; [3]
  Maximal Response TNF: 954 pg/mL

## CCc1nc2c(N)nc3ccccc3c2n1CCCNS(C)(=O)=O [Analog 59]
Interferon (α) (IFN-α); Table 11
  Maximal Response IFN: 1912 pg/mL
  Minimum Effective Concentration IFN: 1.11 µM
[1]; Table 11
  Minimum Effective Concentration TNF: 30 µM
[1]; [3]
  Maximal Response TNF: 238 pg/mL

## Nc1nc2ccccc2c2c1nc(CCO)n2CCCNC(=O)N1CCOCC1 [Example 128]
Interferon (α) (IFN-α); Table 11
  Maximal Response IFN: 75 pg/mL
  Minimum Effective Concentration IFN: 30 µM
[1]; Table 11
  Minimum Effective Concentration TNF: >30 µM
[1]; [3]
  Maximal Response TNF: *

## CCc1nc2c(N)nc3ccccc3c2n1CCOCCN(C)S(C)(=O)=O [Analog 78]
Interferon (α) (IFN-α); Table 11
  Maximal Response IFN: 1803 pg/mL
  Minimum Effective Concentration IFN: 0.12 µM
[1]; Table 11
  Minimum Effective Concentration TNF: 1.11 µM
[1]; [3]
  Maximal Response TNF: 2525 pg/mL

## CCOCc1nc2c(N)nc3ccccc3c2n1CCCN [Analog 85]
Interferon (α) (IFN-α); Table 11
  Maximal Response IFN: 1325 pg/mL
  Minimum Effective Concentration IFN: 0.12 µM
[1]; Table 11
  Minimum Effective Concentration TNF: 30 µM
[1]; [3]
  Maximal Response TNF: 411 pg/mL

## CCCCNC(=O)NCCCn1c(CCOC)nc2c(N)nc3ccccc3c21 [Analog 98]
Interferon (α) (IFN-α); Table 11
  Maximal Response IFN: 5915 pg/mL
  Minimum Effective Concentration IFN: 0.014 µM
[1]; Table 11
  Minimum Effective Concentration TNF: 0.04 µM
[1]; [3]
  Maximal Response TNF: 6169 pg/mL

## Nc1nc2cc(-c3cccnc3)ccc2c2c1nc(CO)n2CCCCNC(=O)NC1CCCC1 [Example 197]
Interferon (α) (IFN-α); [2]
  Maximal Response (pg/mL) IFN: 4373 pg/mL
[1]; [2]
  Maximal Response (pg/mL) TNF: 600 pg/mL
